The source of these data is paper PMC4641580 (ACS Medicinal Chemistry Letters, 2015).

Experiment [1] deals with Mycobacterium tuberculosis PtpA (Mycobacterium tuberculosis, UniProt P9WIA1).
The next experiment has as its target T1, human LYP (Homo sapiens, UniProt Q9Y2R2).
T1 sequence (Q9Y2R2 1-807): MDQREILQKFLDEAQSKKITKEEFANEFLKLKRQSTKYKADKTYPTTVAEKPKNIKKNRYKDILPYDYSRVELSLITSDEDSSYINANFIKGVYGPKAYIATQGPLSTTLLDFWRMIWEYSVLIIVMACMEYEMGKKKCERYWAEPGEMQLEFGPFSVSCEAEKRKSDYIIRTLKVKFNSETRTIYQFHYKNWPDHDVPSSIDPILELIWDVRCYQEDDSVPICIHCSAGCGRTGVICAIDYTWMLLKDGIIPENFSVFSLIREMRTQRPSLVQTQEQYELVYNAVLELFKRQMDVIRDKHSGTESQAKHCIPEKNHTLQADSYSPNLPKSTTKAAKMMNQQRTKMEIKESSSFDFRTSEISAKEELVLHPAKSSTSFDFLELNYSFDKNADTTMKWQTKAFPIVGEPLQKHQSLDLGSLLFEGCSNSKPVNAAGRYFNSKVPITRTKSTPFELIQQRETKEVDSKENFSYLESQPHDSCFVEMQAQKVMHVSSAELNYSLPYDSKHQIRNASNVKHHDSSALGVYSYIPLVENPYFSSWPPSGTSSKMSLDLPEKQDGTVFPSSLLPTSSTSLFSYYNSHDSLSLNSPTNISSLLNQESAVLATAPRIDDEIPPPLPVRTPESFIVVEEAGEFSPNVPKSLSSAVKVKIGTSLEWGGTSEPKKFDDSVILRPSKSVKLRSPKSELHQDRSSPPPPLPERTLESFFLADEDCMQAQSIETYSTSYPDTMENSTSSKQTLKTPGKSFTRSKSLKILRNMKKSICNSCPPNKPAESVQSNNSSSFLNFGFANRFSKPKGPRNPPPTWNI
Format: biochemical.

The next experiment addresses YopH (Yersinia enterocolitica, UniProt P15273). Format: biochemical. As to conditions: read-out: Ki against YopH.
A further experiment concerns the target T2, human PTP-PEST (Homo sapiens, UniProt Q05209).
T2 sequence (Q05209 1-780): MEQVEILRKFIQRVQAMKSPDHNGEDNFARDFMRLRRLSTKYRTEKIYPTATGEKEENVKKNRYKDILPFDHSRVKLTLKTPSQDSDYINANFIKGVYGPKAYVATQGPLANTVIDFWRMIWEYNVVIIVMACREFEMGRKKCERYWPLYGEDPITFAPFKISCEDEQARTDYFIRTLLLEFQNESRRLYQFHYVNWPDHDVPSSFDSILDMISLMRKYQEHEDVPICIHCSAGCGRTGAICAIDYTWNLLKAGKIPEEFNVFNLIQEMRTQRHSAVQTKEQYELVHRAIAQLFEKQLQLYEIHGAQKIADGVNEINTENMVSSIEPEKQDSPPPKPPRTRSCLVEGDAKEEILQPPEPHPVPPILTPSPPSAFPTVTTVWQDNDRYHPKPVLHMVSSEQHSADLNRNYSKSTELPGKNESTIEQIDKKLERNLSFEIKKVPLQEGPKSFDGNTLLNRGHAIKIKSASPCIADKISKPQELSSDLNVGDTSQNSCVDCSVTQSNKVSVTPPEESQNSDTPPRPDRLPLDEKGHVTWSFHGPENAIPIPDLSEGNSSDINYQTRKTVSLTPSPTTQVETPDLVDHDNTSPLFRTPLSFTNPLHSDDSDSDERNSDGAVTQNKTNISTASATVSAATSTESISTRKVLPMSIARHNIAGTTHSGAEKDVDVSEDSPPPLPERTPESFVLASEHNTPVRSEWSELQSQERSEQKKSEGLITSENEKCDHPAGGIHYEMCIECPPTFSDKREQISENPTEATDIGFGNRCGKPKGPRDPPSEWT
Format: biochemical.

In the next experiment the target is T3, human PTP1B (Homo sapiens, UniProt P18031).
T3 sequence (P18031 1-435): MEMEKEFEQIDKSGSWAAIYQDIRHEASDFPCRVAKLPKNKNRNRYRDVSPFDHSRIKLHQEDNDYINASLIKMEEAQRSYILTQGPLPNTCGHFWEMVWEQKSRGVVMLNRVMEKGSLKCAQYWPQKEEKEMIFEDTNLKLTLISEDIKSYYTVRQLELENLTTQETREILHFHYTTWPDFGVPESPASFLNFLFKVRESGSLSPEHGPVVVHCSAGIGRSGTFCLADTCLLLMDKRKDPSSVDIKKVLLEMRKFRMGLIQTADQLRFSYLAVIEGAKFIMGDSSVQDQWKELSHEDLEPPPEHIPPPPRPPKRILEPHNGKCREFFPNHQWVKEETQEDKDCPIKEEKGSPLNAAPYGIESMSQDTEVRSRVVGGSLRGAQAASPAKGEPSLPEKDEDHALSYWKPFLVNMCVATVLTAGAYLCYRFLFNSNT
Format: biochemical.

Experiment [2] has as its system Mycobacterium tuberculosis PtpB. Format: biochemical. As to conditions: read-out: IC50 PtpB.

Mycobacterium tuberculosis PtpA, sequence (P9WIA1 whole entry): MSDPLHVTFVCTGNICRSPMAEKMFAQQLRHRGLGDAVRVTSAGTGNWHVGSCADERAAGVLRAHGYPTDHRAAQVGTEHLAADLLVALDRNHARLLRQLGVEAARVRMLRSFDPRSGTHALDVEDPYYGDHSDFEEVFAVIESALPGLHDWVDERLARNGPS
YopH, sequence (P15273 whole entry, looked up): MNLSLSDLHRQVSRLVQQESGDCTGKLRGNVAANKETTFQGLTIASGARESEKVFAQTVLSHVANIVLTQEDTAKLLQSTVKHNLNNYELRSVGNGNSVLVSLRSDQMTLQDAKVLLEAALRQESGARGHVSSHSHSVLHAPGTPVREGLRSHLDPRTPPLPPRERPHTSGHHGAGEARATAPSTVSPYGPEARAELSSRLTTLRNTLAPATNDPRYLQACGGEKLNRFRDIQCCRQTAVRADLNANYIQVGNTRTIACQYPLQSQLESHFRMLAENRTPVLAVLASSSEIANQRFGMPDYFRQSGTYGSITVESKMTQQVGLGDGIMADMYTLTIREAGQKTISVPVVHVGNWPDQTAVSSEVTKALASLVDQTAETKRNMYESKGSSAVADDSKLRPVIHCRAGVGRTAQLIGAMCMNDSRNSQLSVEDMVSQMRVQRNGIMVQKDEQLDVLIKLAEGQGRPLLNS

In general, IC50 refers to the midpoint of a concentration-inhibition curve. Broadly, the Ki is a dissociation constant, usually derived from enzyme kinetics or from competition with a known ligand. Consider `[O]=[V]([S]c1cccc[n+]1[O-])[S]c1cccc[n+]1[O-]` [Compound 3, Bis(pyridine-2-thiol N-oxide) oxovanadium(IV)], for which the “SI (IC50PTP/IC50YopH) PtpA” value in experiment [1] came out at 31.5. For the same compound, the half-inhibitory concentration (IC50) is 9.12 ± 0.26 µM in experiment [1] (read-out: IC50 PtpA); 28.3 ± 1.71 µM on human LYP (read-out: IC50 LYP); 41.3 ± 3.19 µM on human PTP-PEST (read-out: IC50 PTP–PEST); 0.78 ± 0.02 µM on human PTP1B (read-out: IC50 PTP1B); 52.6 ± 1.56 µM in experiment [2]. Further, at human LYP, the “SI (IC50PTP/IC50YopH) LYP” value is recorded as 97.6. The Ki at YopH stood at 0.19 µM. Further, the “SI (IC50PTP/IC50YopH) PTP–PEST” value on human PTP-PEST was found to be 142.4. In addition, the “SI (IC50PTP/IC50YopH) PTP1B” value at human PTP1B was 2.7.
